Experimental data: patent publication US8946201B2, “Methods for inhibiting TGF-β” (Saint Louis University, priority 2007, dated 2015)
“Also recorded” adds a separate entry of the source.

Key:
[1] = test system: pig burn wounds; experiment: Pig skin burn injury model: wound healing and scar; type: in vivo; conditions: topical; for wound closure / open wound: post-burn day 38
Method: FIG. 6. Wound closure and scar formation in pig burn wounds treated with cholesterol (CHO). Burn wounds treated with 0.025% cholesterol (A,B) and 0.00625% cholesterol (E,F) and vehicle only (C,D) were photographed immediately after burn injury (A,C,E) and at postburn day 38 (B,D,F). After burn injury, necrosis was present (white) (A,C,E).
Four pigs weighing 20-25 kg were anesthetized by intramuscular injection of ketamine (5 mg/kg), strenil (cazaporonum) (20 mg/kg) and atropine ([…]). Six uniform burn wounds (110° C., 30 sec) were then made symmetrically on the back of each pig using a modified soldering iron with a flat contact area of ˜20 cm^2. […] After wounding, IntraSite gels containing TGF-β antagonist and buffer vehicle (as control) were applied to the pig burn wounds. The burn wound received no topical gel treatment was also used as the other control. All wounds were dressed with paraffin gauze. TGF-β antagonist gel and control gel were applied to the wounds every two days for the first 10 days and twice a week for the next 30 days. All wounds were cleaned and measured prior to each application of the IntraSite gel.
Wound healing was assessed by evaluating the rates of wound re-epithelialization and contraction. The open wound area and the area enclosed by the normal hair bearing skin were measured using the macrophotography technique. The healing rate was monitored every two days for the first 10 days and twice a week for 30 more days. Wound re-epithelialization or contraction as a percent of the original wound size was calculated as described previously.
The volumes of scar were estimated by multiplying their thickness by the size of the scar on post-burn day 41 in pigs and on post-excision day 10 in rabbits.
These include: 1) Cholesterol treatment of cells suppresses TGF-β-induced cellular responsiveness including TGF-β induced Smad2 phosphorylation and nuclear translocation and TGF-β-induced expression of plasminogen activator inhibitor-1 (PAI-1). PAI-1 gene expression has commonly been used as an indicator of TGF-β-induced cellular responsiveness and PAI-1 is involved in inhibiting degradation of ECM proteins. And 2) Cholesterol treatment reverses TGF-β-induced growth inhibition in Mv1Lu cells. Since TGF-β negatively regulates normal wound healing and mediates skin fibrosis and scarring, we decided to test the effect of cholesterol on wound healing and scar formation in a pig skin burn injury model. Six thermal burns (110° C., 30 sec.; ˜20 cm^2, three on each side) were created on the back on each pig (20 kg, female). After wounding, two lesions were treated with a thin-layer of gel containing 0.025% cholesterol; two received gel containing 0.006% cholesterol and two received gel containing vehicle only. Cholesterol and cholesterol gels were applied every 2 days for the first 10 days and twice a week for the nest 30 days at which time re-epithelialization was measured and photographed. […] The volumes of the scar tissue in wound treated with 0.025% and 0.00625% cholesterol were 0.01 and 0.20±0.04 cm^3, respectively. The volume of the scar tissue in wounds treated with vehicle only was 0.45±0.03 cm^3.

[2] = test system: TβR-I and TβR-II; experiment: 125I-TGF-β1 affinity labeling, NRK cells; type: cell-based, rat; conditions: 1 hr
Method: (B, C, D, E) Cells were treated with increasing concentrations of cholesterol in the presence (C) and absence (B, D, E) of 0.2% β-CD, as indicated. After 1 hr at 37° C., ^125I-TGF-β1 affinity labeling of TβR-I and TβR-II in cells was performed at 0° C. ^125I-TGF-β1 affinity-labeled TβR-I and TβR-II were analyzed by 7.5% SDS-PAGE and autoradiography or quantified with a PhosphoImager. A representative of a total of three analyses is shown (top). The bracket indicates the locations of ^125I-TGF-β affinity-labeled TβR-I and TβR-II. The relative intensities of ^125I-TGF-β1 affinity-labeled TβR-I and TβR-II in cells treated without cholesterol were taken as 100%. The quantitative data from three analyses is shown (bottom).
After cross-linking, cell lysates were analyzed by 7.5% SDS-PAGE and autoradiography or quantified by a PhosphoImager. For all experiments, cholesterol or cholesterol derivatives were prepared as the stock solution with a concentration of 25 mg/ml in ethanol. The final concentration of ethanol in the medium was 0.2% (by vol.).

[3] = test system: Smad2 nuclear translocation; experiment: Smad2 nuclear translocation, indirect immunofluorescent staining, Mv1Lu cells; type: cell-based, mink; conditions: 50 μg/ml 1 hr, then 50 pM TGF-β1 30 min
Method: Cells were treated with increasing concentrations of cholesterol, as indicated (A, B, C), 50 μg protein/ml LDL (D), 5 μg protein/ml VLDL (D) or 50 μg/ml cholesterol (E) at 37° C. for 1 hr and then further incubated with 50 pM TGF-β1 for 30 min. […] Smad2 nuclear translocation was analyzed by indirect immunofluorescent staining using P-Smad2 antibody and rhodamine-labeled 2nd antibody (E). Rhodamine fluorescence represents P-Smad2 staining (a,b,c) whereas the nuclei were stained by DAPI staining (d,e,f).
For indirect immunofluorescent staining, cells grown on cover glass were fixed in cold 100% methanol and then incubated with antibody to P-Smad2 overnight. The antigen was visualized by incubation with Rhodamine-conjugated goat antibody to rabbit IgG followed by immunofluorescence microscopy.
To test this possibility, we determined the effect of cholesterol treatment on Smad2 phosphorylation and nuclear translocation, both of which are key signaling events, leading to TGF-β responsiveness. […] To determine the effect of cholesterol on Smad2 nuclear translocation, Mv1Lu cells were treated with 50 μg/ml cholesterol at 37° C. for 1 hr and then further incubated with and without 50 pM TGF-β1 at 37° C. for 30 min. These cells were subjected to immunofluorescent staining using anti-P-Smad2 antibody and nuclear DAPI (4′,6-diamidine-2-phenylindole dihydrochloride) staining.

## CC(C)CCC[C@@H](C)[C@H]1CC[C@H]2[C@@H]3CC=C4C[C@@H](O)CC[C@]4(C)[C@H]3CC[C@]12C [cholesterol]
[1]; 0.00625% cholesterol gel
  volume of the scar tissue: 0.20±0.04 cm^3
  wound closure / open wound: no and almost complete
[1]; 0.025% cholesterol gel
  surface of wounds: very smooth without apparent scar
  volume of the scar tissue: 0.01 cm^3
  wound closure / open wound: very little open wound; also recorded: complete
[2]; 50 μg/ml
  increase of 125I-TGF-β1 binding to TβR-I: ~5.7 fold
[2]; 50 μg/ml, 2.0 untreated
  ratio of TβR-II/TβR-I: 0.35
[2]; increasing concentrations
  effect on binding of 125I-TGF-β1 to TβR-II: did not significant alter
[3]
  effect on Smad2 nuclear translocation: suppressed
